Assays:
[1] = test system: strychnine-induced tonic extensive convulsion and death; conditions: for time to death induced by strychnine convulsion: 150 mg/kg (0.525 mmol/kg) and 300 mg/kg (1.05 mmol/kg) i.p. 15 min before strychnine 1.5 mg/kg; for migration to the central nervous system: evaluated indirectly from strychnine antagonism
Protocol: FIG. 13 Effects on the central nervous system. […] Strychnine nitrate dissolved in physiological saline was administered in the cervicodorsal hypoderm of mice (C57BL/6N; Nippon SLC; male; 10-12 week old) at a dose of 1.5 mg/kg. Subsequently, the time to death through tonic extensive convulsion was measured so that the effect on migration to the central nervous system was evaluated indirectly. Vidarabine, V2E, V3E and V5E were dissolved or suspended in physiological saline and administered intraperitoneally 15 minutes before strychnine administration (n=4-10, means±SE) (FIG. 13). Death was judged to have occurred when the thoracic respiratory movement ceased.
The migration of vidarabine, V2E, V3E and V5E to the central nervous system was evaluated by antagonism against the tonic extensive convulsion and death initiated in mice by strychnine administration. Strychnine nitrate dissolved in physiological saline was administered in the cervicodorsal hypoderm of mice (C57BL/6N; Nippon SLC; male; 10-12 week old) at a dose of 1.5 mg/kg. Subsequently, the time to death through tonic extensive convulsion was measured. Vidarabine, V2E, V3E and V5E were dissolved or suspended in physiological saline and administered intraperitoneally 15 minutes before strychnine administration.

[2] = test system: adenylyl cyclase activity in the heart; assay: Membrane adenylyl cyclase assay, WT heart membrane, forskolin-stimulated; format: biochemical, mouse; conditions: 10 μM; wild-type mouse; heart vs lung
Excerpt: FIG. 3 Inhibitory effects of individual vidarabine derivatives on adenylyl cyclase activity in the striatum, heart and lung. With adenylyl cyclase activity in the presence of […] but in the absence of inhibitors being taken as 100, the reductions in adenylyl cyclase activity upon treatment with various inhibitors at the concentrations indicated on the horizontal axis are shown (n=4, means±S.E.).
(§1) <Membrane Adenylyl Cyclase Assay>
(§2) Striatal, cardiac and pulmonary tissues were removed from WT (C57BL) (Charles River Laboratories Japan, Inc.) and AC5KO (Circ. Res. 93: 364-371, 2003), both of which were 12-15 weeks of age after birth, and individual membrane protein fractions were prepared therefrom. The resultant membrane preparations were incubated with a reaction mixture (20 mM HEPES, pH 8, 5 mM MgCl2, 0.5 mM EDTA, pH 8, 0.1 mM ATP, 1 mM phospho creatine, 8 U/mL creatine phosphor kinase, 200 μM IBMX) at 30° C. in the presence of forskolin (an activator of adenylyl cyclase) (50 μM, Sigma Cat. No. F6886) and various compounds, to thereby allow production of cAMP. In this assay, striatum- or lung-derived membrane preparations were used in an amount of 1 μg, and heart-derived membrane preparation was used in an amount of 2 μg. 15 minutes (striatum and lung) or 30 minutes (heart) after its start, the reaction was terminated by adding trichloroacetate (TCA) solution to give a final concentration of 5%. Then, the protein was precipitated by centrifugation (13,500×g, 10 min).
(§3) In both membrane adenylyl cyclase assay and cAMP accumulation assay, the amount of cAMP contained in TCA solution was determined by radioimmunoassay using […].

[3] = test system: cardiac myocytes in myocardial tissues; assay: TUNEL staining of myocardial tissues of chronic catecholamine-loaded mice; format: in vivo, mouse; conditions: mice of the chronic isoproterenol loading experiment
Protocol: FIG. 12 TUNEL stain of myocardial tissues. Apoptosis positive cardiac myocytes in the hearts of mice used in chronic catecholamine loading experiment (FIG. 9) were evaluated by TUNEL staining (n=4-6, means±SE).
<TUNEL Staining of Myocardial Tissues>
Apoptosis positive cells of the mice used in the chronic catecholamine loading experiment were evaluated by TUNEL staining.

[4] = test system: adenylyl cyclase activity in the striatum (type 5 adenylyl cyclase); assay: Membrane adenylyl cyclase assay, WT striatal membrane, forskolin-stimulated; format: biochemical, mouse; conditions: 10 μM; WT; striatum vs lung
Protocol: FIG. 2 Inhibitory effects of various compounds on adenylyl cyclase activity in mouse striatum. The striatum is part of the brain. Here, it is known that type 5 adenylyl cyclase occupies almost all of the enzyme activity. […] Relative values are shown with adenylyl cyclase activity in the presence of 50 μM forskolin but in the absence of inhibitors being taken as 100 (n=4, means±S.E.).
as §1, §2, §3

[5] = test system: pacing-induced atrial fibrillation; assay: Antiarrhythmic action: pacing-induced transient atrial fibrillation; format: in vivo, mouse; conditions: vidarabine 15 mg/kg/day, V2E, V3E, V5E 19.8 mg/kg/day, osmotic mini-pump; vs DMSO alone
Protocol: FIG. 14 Antiarrhythmic (atrial fibrillation inhibition) action. To healthy wild type mice (C57BL/6N), vidarabine (15 mg/kg/day), V2E, V3E or V5E (19.8 mg/kg/day) (all of which are dissolved in DMSO) or DMSO alone was administered with an osmotic mini-pump (Alzet 2001). Subsequently, voltage stimuli of 2.5 mA were applied to the mice for 60 seconds at intervals of 30 milliseconds with a transesophageal catheter (atrial tachypacing; Circ Res 97, 62-69, 2005) to induce transient atrial fibrillation. The duration of atrial fibration until the induced transient atrial fibrillation converted to a normal sinus rhythm was measured (n=4-8, means±SE).
After mice were inhalationally anesthetized with isoflurane, an electrode catheter (Millar: Model EPR800; size 1.1 F; length 4.5 cm) connected to an electrocardiogram amp for the purpose of recording intracardiac electrocardiogram was slowly inserted through the oral cavity into the esophagus, and fixed at a site where maximum P wave was recorded. The thus fixed electrode catheter was connected to an electrostimulator carefully enough to avoid any movement of its position. Thereafter, body surface electrogram was recorded by II lead. Subsequently, voltage stimuli of 2.5 mA were applied to mice for 60 seconds at intervals of 30 milliseconds to thereby induce transient atrial fibrillation. The time period during which the following phenomena can be confirmed from body surface electrogram was regarded as the duration of atrial P wave disappears from the baseline and the R-R intervals are not regular but produce arrhythmic pulse.
To healthy WT (C57BL/6N), each of vidarabine (15 mg/kg/day), V2E, V3E and V5E (19.8 mg/kg/day) (all of which were dissolved in DMSO) or DMSO alone was administered with an osmotic mini-pump (Alzet 2001). Subsequently, atrial fibrillation was induced under the above-described conditions, and the duration of atrial fibrillation until the induced atrial fibrillation converted to a normal sinus rhythm was measured (FIG. 14). This experiment was completed after confirming that the normal sinus rhythm was lasting for at least 5 minutes and that there was no recurrence of atrial fibrillation. For information, the maximum dose of vidarabine approved for use in the treatment of herpes in humans is 15 mg/kg/day for 10 days.

Structure (SMILES)	time to death induced by strychnine convulsion [1]	migration to the central nervous system [1]	inhibition of adenylyl cyclase activity in heart relative to lung (tissue specificity) [2]	apoptosis of cardiac myocytes induced by chronic catecholamine stimulation (TUNEL, myocardial tissue) [3]	inhibition of adenylyl cyclase activity in striatum relative to lung (tissue specificity) [4]	time for pacing-induced atrial fibrillation to convert to a normal sinus rhythm [5]
CN(C)CC(=O)OC1C(O)C(CO)OC1n1cnc2c(N)ncnc21 (centres unmarked) [V2E, 2-O—(N,N-Dimethylglycyl)Vidarabine]	did not prolong	extremely low	about 2.6 fold	equally inhibited	about 3.0 fold	significantly shortened
CN(C)CC(=O)OC1C(CO)OC(n2cnc3c(N)ncnc32)C1O (centres unmarked) [V3E, 3-O—(N,N-Dimethylglycyl)Vidarabine]	did not prolong	extremely low	–	–	–	significantly shortened
CN(C)CC(=O)OCC1OC(n2cnc3c(N)ncnc32)C(O)C1O (centres unmarked) [V5E, 5-O—(N,N-Dimethylglycyl)Vidarabine]	did not prolong	extremely low	–	–	–	significantly shortened
Nc1ncnc2c1ncn2[C@@H]1O[C@H](CO)[C@@H](O)[C@@H]1O [vidarabine, reference compound]	significantly prolonged	–	about 2.4 fold	equally inhibited	about 2.8 fold	significantly shortened
